Data as given in patent US7390829B2, “Alpha-2 adrenergic agonists” (Allergan, Inc., priority 2005, dated 2008).

Experiments:
alpha2A receptor = molecular target: T1, alpha2A receptor (Homo sapiens, UniProt P08913); assay: Receptor Selection and Amplification Technology (RSAT) assay, α2A; type: cell-based; settings: relative to brimonidine (standard full agonist), NA = not active at concentrations less than 10 micromolar
T1 construct: expressed in transfected cells; host or cells: NIH-3T3
T1 sequence (P08913 1-465): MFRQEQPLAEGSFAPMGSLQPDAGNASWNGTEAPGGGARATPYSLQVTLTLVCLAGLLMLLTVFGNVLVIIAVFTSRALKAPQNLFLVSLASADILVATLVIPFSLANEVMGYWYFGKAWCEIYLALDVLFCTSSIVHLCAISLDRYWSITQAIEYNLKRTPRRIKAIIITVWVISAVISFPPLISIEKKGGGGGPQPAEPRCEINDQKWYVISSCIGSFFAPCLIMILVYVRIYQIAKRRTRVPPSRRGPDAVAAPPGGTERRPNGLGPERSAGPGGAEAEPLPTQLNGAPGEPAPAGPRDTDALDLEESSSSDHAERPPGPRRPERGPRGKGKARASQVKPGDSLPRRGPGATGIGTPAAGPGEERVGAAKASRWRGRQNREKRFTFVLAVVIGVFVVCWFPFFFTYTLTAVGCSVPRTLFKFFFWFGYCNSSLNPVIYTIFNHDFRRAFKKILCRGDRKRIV
Protocol: (§1) Receptor Selection and Amplification Technology (RSAT) Assay
(§2) The RSAT assay measures a receptor-mediated loss of contact inhibition that results in selective proliferation of receptor-containing cells in a mixed population of confluent cells. The increase in cell number is assessed with an appropriate transfected marker gene such as β-galactosidase, the activity of which can be easily measured in a 96-well format. Receptors that activate the G protein, Gq, elicit this response. Alpha2 receptors, which normally couple to Gi, activate the RSAT response when coexpressed with a hybrid Gq protein that has a Gi receptor recognition domain, called Gq/i5.
(§3) NIH-3T3 cells are plated at a density of 2×10^6 cells in 15 cm dishes and maintained in Dulbecco's modified Eagle's medium supplemented with 10% calf serum. […] After washing with phosphate-buffered saline, β-galactosidase enzyme activity is determined by adding 200 μl of the chromogenic substrate (consisting of 3.5 mM o-nitrophenyl-β-D-galactopyranoside and 0.5% nonidet P-40 in phosphate buffered saline), incubating overnight at 30° C. and measuring optical density at 420 nm. The absorbance is a measure of enzyme activity, which depends on cell number and reflects a receptor-mediated cell proliferation. […]

alpha2B receptor = molecular target: T2, alpha2B receptor (Homo sapiens, UniProt P18089); assay: Receptor Selection and Amplification Technology (RSAT) assay, α2B; type: cell-based; settings: relative to brimonidine (standard full agonist), NA = not active at concentrations less than 10 micromolar
T2 construct: expressed in transfected cells; host or cells: NIH-3T3
T2 sequence (P18089 1-450): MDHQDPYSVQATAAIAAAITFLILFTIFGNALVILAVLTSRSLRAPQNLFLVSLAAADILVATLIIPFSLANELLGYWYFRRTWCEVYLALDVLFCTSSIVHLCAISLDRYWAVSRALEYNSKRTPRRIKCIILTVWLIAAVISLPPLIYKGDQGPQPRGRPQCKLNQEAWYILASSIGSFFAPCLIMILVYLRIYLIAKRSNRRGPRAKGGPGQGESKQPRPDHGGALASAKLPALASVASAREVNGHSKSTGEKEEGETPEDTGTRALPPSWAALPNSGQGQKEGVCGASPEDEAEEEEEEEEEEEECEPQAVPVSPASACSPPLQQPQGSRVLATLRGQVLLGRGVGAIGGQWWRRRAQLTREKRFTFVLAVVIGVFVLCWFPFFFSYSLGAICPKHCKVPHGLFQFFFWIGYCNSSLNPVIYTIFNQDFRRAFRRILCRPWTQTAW
Protocol: as §1, §2, §3

alpha2C receptor = molecular target: T3, alpha2C receptor (Homo sapiens, UniProt P18825); assay: Receptor Selection and Amplification Technology (RSAT) assay, α2C; type: cell-based; settings: relative to brimonidine (standard full agonist), NA = not active at concentrations less than 10 micromolar
T3 construct: expressed in transfected cells; host or cells: NIH-3T3
T3 sequence (P18825 1-462): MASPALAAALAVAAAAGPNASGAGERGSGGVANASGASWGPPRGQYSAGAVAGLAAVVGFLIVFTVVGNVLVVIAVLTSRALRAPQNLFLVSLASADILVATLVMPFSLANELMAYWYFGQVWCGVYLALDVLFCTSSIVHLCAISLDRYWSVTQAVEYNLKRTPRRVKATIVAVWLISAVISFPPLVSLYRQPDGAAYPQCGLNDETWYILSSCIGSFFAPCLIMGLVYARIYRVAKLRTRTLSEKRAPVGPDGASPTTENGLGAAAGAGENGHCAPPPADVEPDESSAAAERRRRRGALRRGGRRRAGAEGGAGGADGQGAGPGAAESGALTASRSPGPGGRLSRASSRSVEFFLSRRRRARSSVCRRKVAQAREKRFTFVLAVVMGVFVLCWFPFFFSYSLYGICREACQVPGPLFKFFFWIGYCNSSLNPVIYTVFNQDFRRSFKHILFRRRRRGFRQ
Protocol: as §1, §2, §3

locomotor activity [1] = assay: Sedation model, rats (locomotor/exploratory activity); type: in vivo; settings: for rat locomotor activity: 30 min following dosing (FIG. 3)
Protocol: (§4) The utility of alpha2-adrenergic agonists is limited by a range of side effects, particularly sedation and cardiovascular depression. The sedative activity of the compounds is assessed by measuring their ability to reduce the exploratory activity of mice and rats when placed in a dark chamber 30 min following dosing. The animal's activity is determined automatically by placing it in a digicom analyzer chamber (Omnitech Electronic). These chambers have photocells criss-crossing the box that are broken as the animal moves around. The computer analyzes this movement and records total activity over a 5-min time period. […] This represents greater than a 300-fold margin of safety (FIG. 4).

locomotor activity [2] = assay: Sedation model, mice (locomotor/exploratory activity); type: in vivo; settings: oral dose of 3 mg/kg
Protocol: as §4

OCC1=CCC[C@@H](Cc2c[nH]c(=S)[nH]2)C1 (single isomer, unassigned) [Compound 5]
Intrinsic activity α2A (alpha2A receptor): 0.9
Intrinsic activity α2B (alpha2B receptor): 1.0
Intrinsic activity α2C (alpha2C receptor): 1.1

OCC1=CCCC(Cc2c[nH]c(=S)[nH]2)C1 (stereo not drawn) [Compound 1, 4-(3-Hydroxymethyl-cyclohex-3-enylmethyl)-1,3-dihydro-imidazole-2-thione]
sedation / locomotor activity, rats (locomotor activity [1]; general statement (FIG. 3)): does not sedate
rat locomotor activity (locomotor activity [1]; intraperitoneal doses up to at least 3 mg/kg): did not decrease
margin of safety (locomotor activity [1]; non-sedating dose in rats (ip 3 mg/kg, oral 10 mg/kg) versus active dose): ≥ 30 fold
rat locomotor activity (locomotor activity [1]; oral doses up to at least 10 mg/kg): did not decrease

O=C(CC1CCCC1)OCC1=CCCC(Cc2c[nH]c(=S)[nH]2)C1 (stereo not drawn) [Compound 3, cyclopentyl-acetic acid 5-(2-thioxo-2,3-dihydro-1H-imidazol-4-ylmethyl)-cyclohex-1-enylmethyl ester]
sedation, rats (locomotor activity [1]; oral dose of 3 mg/kg): did not sedate
sedation, mice (locomotor activity [2]): did not sedate
